IC50 data for 35 compounds are collected here from patent US20080221086A1, “Novel Inhibitors of Glutaminyl Cyclase” (PROBIODRUG AG, priority 2006, published 2008).

Where two headings read alike, the source gives them in different places.

The assay concerns the target hQC (Homo sapiens, UniProt Q16769). Put plainly: Fluorometric assay of glutaminyl cyclase (QC) inhibition, H-Gln-βNA or H-Gln-AMC substrate. The format is biochemical. Summed up:
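Ki values were obtained by fitting progress curves to a competitive-inhibition equation, and the rapid screen used 4 mM inhibitor with substrate at 1 KM. Both readouts coupled pyroglutamyl aminopeptidase at pH 8.0 and 30° C: H-Gln-βNA at 0.2 mM (ex/em 320/410 nm) or H-Gln-AMC (380/460 nm).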

Where [1] appears, read: compound from preparative synthesis, purified by chromatography, fluorescent assay, read-out: IC50 hQC.

hQC, sequence (Q16769 29-361): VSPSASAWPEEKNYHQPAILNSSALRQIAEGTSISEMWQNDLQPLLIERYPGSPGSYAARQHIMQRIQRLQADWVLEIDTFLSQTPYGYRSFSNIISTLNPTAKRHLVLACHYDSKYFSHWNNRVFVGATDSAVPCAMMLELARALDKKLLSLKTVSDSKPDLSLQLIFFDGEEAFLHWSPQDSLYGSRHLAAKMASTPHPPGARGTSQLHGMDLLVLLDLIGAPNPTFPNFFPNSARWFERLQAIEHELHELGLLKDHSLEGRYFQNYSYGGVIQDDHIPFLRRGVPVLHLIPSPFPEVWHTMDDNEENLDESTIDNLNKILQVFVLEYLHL

For orientation: IC50 means the point on the concentration scale where inhibition reaches its midpoint. `CCCCC1/C(=N/Cc2cc(OC)c(OC)c(OC)c2)NC(=O)N1CCCn1ccnc1` (centres unmarked) [Compound 27, 5-Butyl-1-(3-imidazol-1-yl-propyl)-4-3,4,5-trimethoxy-benzylimino-imidazolidin-2-one]: for the setting “read-out: IC50”, the 50% inhibitory concentration (IC50) amounted to 5.8 µM.

For the compound `Cc1ccc2c(C3/C(=N\Cc4ccccc4)NC(=O)N3c3ccc4[nH]cnc4c3)c[nH]c2c1` (centres unmarked) [Compound 230, 1-(1H-Benzoimidazol-5-yl)-4-benzylimino-5-(6-methyl-1H-indol-3-yl)-imidazolidin-2-one], the 50% inhibitory concentration (IC50) (read-out: IC50) came out at 0.004 µM.

In the case of `FC(F)(F)c1ccccc1/N=C1\NC(=S)N(c2ccc3[nH]cnc3c2)C1C1=CCCCC1` (centres unmarked) [Compound 149, 1-(1H-Benzoimidazol-5-yl)-5-cyclohex-1-enyl-4-2-trifluoromethyl-phenylimino-imidazolidine-2-thione], the concentration for half-maximal inhibition (IC50) (read-out: IC50) was found to be 6.7 µM.

In the case of `O=C1N/C(=N\CCCN2CCOCC2)C(c2ccnc3ccccc23)N1c1ccc2[nH]cnc2c1` (centres unmarked) [Compound 212, 1-(1H-Benzoimidazol-5-yl)-4-3-morpholin-4-yl-propylimino-5-quinolin-4-yl-imidazolidin-2-one], where the note is “read-out: IC50”, the half-inhibitory concentration (IC50) was determined as 4.9 µM.

Regarding `O=C1N/C(=N/CCc2c[nH]c3ccccc23)C(c2ccc(O)cc2)N1CCCn1ccnc1` (centres unmarked) [Compound 64, 5-(4-Hydroxy-phenyl)-1-(3-imidazol-1-yl-propyl)-4-2-(1H-indol-3-yl)-ethylimino-imidazolidin-2-one], the IC50 (read-out: IC50) stood at 1.3 µM.

As to `C/N=C1/NC(=O)N(c2ccc3[nH]cnc3c2)C1c1ccc2ccccc2c1` (centres unmarked) [Compound 159, 1-(1H-Benzoimidazol-5-yl)-4-methylimino-5-naphthalen-2-yl-imidazolidin-2-one], for the setting “read-out: IC50”, the half-maximal inhibitory concentration (IC50) was 0.004 µM.

Regarding `O=C1N/C(=N/Cc2ccccc2)C(c2ccc(Cl)c(F)c2)N1CCCn1ccnc1` (centres unmarked) [Compound 96, 4-Benzylimino-5-(4-chloro-3-fluoro-phenyl)-1-(3-imidazol-1-yl-propyl)-imidazolidin-2-one], where the note is “read-out: IC50”, the IC50 amounted to 6.7 µM.

`O=C1N/C(=N/CCc2c[nH]c3ccccc23)C(c2ccccc2F)N1CCCn1ccnc1` (centres unmarked) [Compound 61, 5-(2-Fluoro-phenyl)-1-(3-imidazol-1-yl-propyl)-4-(2-(1H-indol-3-yl)-ethylimino)-imidazolidin-2-one]: the IC50 reads like this: under setting [1], 0.452 µM; (read-out: IC50) 2.2 µM.

For `CC1=CC(C)C(C2/C(=N/C(C)C)NC(=O)N2c2ccc3[nH]cnc3c2)CC1` (centres unmarked) [Compound 254, 1-(1H-Benzoimidazol-5-yl)-5-(2,4-dimethyl-cyclohex-3-enyl)-4-(isopropylimino)-imidazolidin-2-one], the IC50 was 0.997 µM under setting [1] and 0.004 µM (read-out: IC50).

`Cc1cccc(C2/C(=N\Cn3nnc4ccccc43)NC(=O)N2c2ccc3[nH]cnc3c2)c1` (centres unmarked) [Compound 324, 1-(1H-Benzoimidazol-5-yl)-4-benzotriazol-1-ylmethylimino-5-m-tolyl-imidazolidin-2-one]: for the setting “read-out: IC50”, the IC50 worked out at 3.1 µM.

As for `CC1/C(=N/C(c2ccccc2)c2ccccc2)NC(=O)N1CCCn1ccnc1` (centres unmarked) [Compound 80, 4-Benzhydrylimino-1-(3-imidazol-1-yl-propyl)-5-methyl-imidazolidin-2-one], for the setting “read-out: IC50”, the 50% inhibitory concentration (IC50) came out at 9.4 µM.

For the compound `O=C1N/C(=N/CCc2c[nH]c3ccccc23)C(c2ccsc2)N1CCCn1ccnc1` (centres unmarked) [Compound 47, 1-(3-Imidazol-1-yl-propyl)-4-2-(1H-indol-3-yl)-ethylimino-5-thiophen-3-yl-imidazolidin-2-one], the IC50 (read-out: IC50) was found to be 4 µM.

Turning to `CSc1ccc(C2/C(=N\Cn3nnc4ccccc43)NC(=S)N2c2ccc3[nH]cnc3c2)cc1` (centres unmarked) [Compound 151, 1-(1H-Benzoimidazol-5-yl)-4-benzotriazol-1-ylmethylimino-5-(4-methylsulfanyl-phenyl)-imidazolidine-2-thione], the IC50 (read-out: IC50) was 0.004 µM.

Consider `O=C(C/N=C1\NC(=O)N(c2ccc3[nH]cnc3c2)C1c1ccnc2ccccc12)N1CCC(O)CC1` (centres unmarked) [Compound 343, 1-(1H-Benzoimidazol-5-yl)-4-2-(4-hydroxy-piperidin-1-yl)-2-oxo-ethylimino-5-quinolin-4-yl-imidazolidin-2-one], for which the half-inhibitory concentration (IC50) (read-out: IC50) stood at 6.7 µM.

Take `O=C1N/C(=N/Cc2ccc(Cl)cc2)C(c2cc(F)cc(F)c2)N1CCCn1ccnc1` (centres unmarked) [Compound 19, 4-4-Chloro-benzylimino-5-(3,5-difluoro-phenyl)-1-(3-imidazol-1-yl-propyl)-imidazolidin-2-one]: for the setting “read-out: IC50”, the concentration for half-maximal inhibition (IC50) came out at 4 µM.

As to `O=C(C/N=C1/NC(=O)N(c2ccc3nc[nH]c3c2)C1c1ccc2[nH]ccc2c1)N1CCC(O)CC1` (centres unmarked) [Compound 248, 1-(3H-Benzoimidazol-5-yl)-4-2-(4-hydroxy-piperidin-1-yl)-2-oxo-ethylimino-5-(1H-indol-5-yl)-imidazolidin-2-one], where the note is “read-out: IC50”, the IC50 came out at 0.4 µM.

For the compound `O=C1N/C(=N\C(c2ccccc2)c2ccccc2)C(c2ccccc2)N1CCCn1ccnc1` (centres unmarked) [Compound 81, 4-Benzhydrylimino-1-(3-imidazol-1-yl-propyl)-5-phenyl-imidazolidin-2-one], the half-maximal inhibitory concentration (IC50) (read-out: IC50) worked out at 5.8 µM.

`COc1cc(C/N=C2\NC(=O)N(CCCn3ccnc3)C2c2cccc(F)c2F)cc(OC)c1OC` (centres unmarked) [Compound 25, 5-(2,3-Difluoro-phenyl)-1-(3-imidazol-1-yl-propyl)-4-3,4,5-trimethoxy-benzylimino-imidazolidin-2-one]: under “read-out: IC50”, the IC50 came out at 9.4 µM.

For `Cc1ccc(C2/C(=N/c3c(Cl)cccc3Cl)NC(=S)N2c2ccc3nc[nH]c3c2)cc1` (centres unmarked) [Compound 237, 1-(3H-Benzoimidazol-5-yl)-4-2,6-dichloro-phenylimino-5-p-tolyl-imidazolidine-2-thione], the IC50 (read-out: IC50) amounted to 7.6 µM.

Take `O=C1N/C(=N\C2CCCCC2)C(c2cccc(F)c2F)N1CCCn1ccnc1` (centres unmarked) [Compound 3]: the IC50 (read-out: IC50) worked out at 6.8 µM.

`Oc1cccc(C2/C(=N/c3cc(Cl)ccc3Cl)NC(=S)N2c2ccc3[nH]cnc3c2)c1` (centres unmarked) [Compound 214, 1-(1H-Benzoimidazol-5-yl)-4-2,5-dichloro-phenylimino-5-(3-hydroxy-phenyl)-imidazolidine-2-thione]: the IC50 (read-out: IC50) worked out at 7.6 µM.

As for `S=C1NC(=NCCc2cccs2)C(c2cc3c(cc2Br)OCO3)N1c1ccc2nc[nH]c2c1` (centres unmarked) [Compound 137, 1-(3H-Benzoimidazol-5-yl)-5-(6-bromo-benzo1,3dioxol-5-yl)-4-2-thiophen-2-yl-ethylimino-imidazolidin-2-thione], the IC50 (read-out: IC50) is 4 µM.

In the case of `Cc1cccc(C2C(=NCCc3c[nH]c4ccccc34)NC(=O)N2CCCn2ccnc2)c1O` (centres unmarked) [Compound 46, 5-(2-Hydroxy-3-methyl-phenyl)-1-(3-imidazol-1-yl-propyl)-4-2-(1H-indol-3-yl)-ethylimino-imidazolidin-2-one], the IC50 (read-out: IC50) turned out to be 2.2 µM.

Consider `O=C1N/C(=N\CCc2cccs2)C(c2ccccc2Cl)N1CCCn1ccnc1` (centres unmarked) [Compound 43, 5-(2-Chloro-phenyl)-1-(3-imidazol-1-yl-propyl)-4-(2-thiophen-2-yl-ethylimino)-imidazolidin-2-one], for which the half-inhibitory concentration (IC50) under setting [1] came out at 0.858 µM and the IC50 (read-out: IC50) came out at 0.04 µM.

With `O=C(C/N=C1/NC(=O)N(CCCn2ccnc2)C1c1ccc(Cl)c(F)c1)N1CCc2ccccc2C1` (centres unmarked) [Compound 70, 5-(4-Chloro-3-fluoro-phenyl)-4-2-(3,4-dihydro-1H-isoquinolin-2-yl)-2-oxo-ethylimino-1-(3-imidazol-1-yl-propyl)-imidazolidin-2-one], the IC50 (read-out: IC50) was found to be 3.1 µM.

Take `O=C1N/C(=N\C(c2ccccc2)c2ccccc2)C(c2cc(F)cc(F)c2)N1CCCn1ccnc1` (centres unmarked) [Compound 84, 4-Benzhydrylimino-5-(3,5-difluoro-phenyl)-1-(3-imidazol-1-yl-propyl)-imidazolidin-2-one]: the IC50 (read-out: IC50) was 3.1 µM.

As for `O=C1N/C(=N\CCC(c2ccccc2)c2ccccc2)C(c2ccccc2)N1CCCn1ccnc1` (centres unmarked) [Compound 105, 4-3,3-Diphenyl-propylimino-1-(3-imidazol-1-yl-propyl)-5-phenyl-imidazolidin-2-one], the IC50 (read-out: IC50) was found to be 3.1 µM.

`O=C1N/C(=N/CCc2cccs2)C(C2CCC=CO2)N1CCCn1ccnc1` (centres unmarked) [Compound 39, 5-(3,4-Dihydro-2H-pyran-2-yl)-1-(3-imidazol-1-yl-propyl)-4-2-thiophen-2-yl-ethylimino-imidazolidin-2-one]: the half-inhibitory concentration (IC50) (read-out: IC50) was found to be 7.6 µM.

Turning to `O=C1N/C(=N/CCc2c[nH]c3ccccc23)C(c2ccc(F)cc2)N1CCCn1ccnc1` (centres unmarked) [Compound 63, 5-(4-Fluoro-phenyl)-1-(3-imidazol-1-yl-propyl)-4-2-(1H-indol-3-yl)-ethylimino-imidazolidin-2-one], the IC50 (read-out: IC50) worked out at 3.1 µM.

`O=C1N/C(=N/Cc2ccccc2)C(c2ccc[nH]2)N1CCCn1ccnc1` (centres unmarked) [Compound 93, 4-Benzylimino-1-(3-imidazol-1-yl-propyl)-5-(1H-pyrrol-2-yl)-imidazolidin-2-one]: under “read-out: IC50”, the half-maximal inhibitory concentration (IC50) was 9.4 µM.

Take `O=C1N/C(=N\Cc2ccccc2)C(c2cccc(F)c2F)N1CCCn1ccnc1` (centres unmarked) [Compound 94, 4-Benzylimino-5-(2,3-difluoro-phenyl)-1-(3-imidazol-1-yl-propyl)-imidazolidin-2-one]: the IC50 (read-out: IC50) turned out to be 5.8 µM.

As for `O=C1N/C(=N/Cn2nnc3ccccc32)C(c2ccc3nsnc3c2)N1c1ccc2[nH]cnc2c1` (centres unmarked) [Compound 271, 1-(1H-Benzoimidazol-5-yl)-5-benzo[c][1,2,5]thiadiazol-5-yl-4-benzotriazol-1-ylmethylimino-imidazolidin-2-one], where the note is “read-out: IC50”, the IC50 amounted to 0.4 µM.

As to `O=C1N/C(=N/CCCc2ccccc2)C(c2cc3ccccc3s2)N1c1ccc2[nH]cnc2c1` (centres unmarked) [Compound 172, 5-Benzobthiophen-2-yl-1-(1H-Benzoimidazol-5-yl)-4-3-phenyl-propylimino-imidazolidin-2-one], the half-maximal inhibitory concentration (IC50) (read-out: IC50) came out at 1.3 µM.

As for `CC(CC1/C(=N/C2CCCc3ccccc32)NC(=S)N1c1ccc2[nH]cnc2c1)CC(C)(C)C` (centres unmarked) [Compound 150, 1-(1H-Benzoimidazol-5-yl)-4-1,2,3,4-tetrahydro-naphthalen-1-ylimino-5-(2,4,4-trimethyl-pentyl)-imidazolidine-2-thione], for the setting “read-out: IC50”, the IC50 is 6.7 µM.

On to `O=C1N/C(=N\Cc2ccccc2)C(c2ccccc2Cl)N1CCCn1ccnc1` (centres unmarked) [Compound 97, 4-Benzylimino-5-(2-chloro-phenyl)-1-(3-imidazol-1-yl-propyl)-imidazolidin-2-one], for which the IC50 (read-out: IC50) is 4 µM.
